From US11104657B2, “Notch inhibitors for use in the treatment of t-cell acute lymphoblastic leukemia” (UNIVERSITÀ DEGLI STUDI DI ROMA “LA SAPIENZA”, priority 2016, dated 2021)
Like-named read-outs stand apart in the source and are kept apart here.

Experiments:
DND41 cells = test: MTS cell proliferation assay (IG50), DND41; format: cell-based, human; conditions: for effect on cell proliferation: doses of up to 50 μM
Description: In order to evaluate the biological implications of the compounds, their effect on cell proliferation/vitality was tested by determining the relative concentrations of growth inhibition (IG50) by means of the MTS cellular assay.
The cell lines DND41 (ACC 525, DSMZ, Braunschweig, GERMANY), KOPTK1 (RRID: CVCL_4965) were maintained in culture in RPMI-1640 (Gibco, Carlsbad, Calif., USA) with 10% fetal bovine serum. TALL-1 cells (ACC-521: DSMZ, Braunschweig, GERMANY) were cultured in RPMI-1640 (Gibco, Carlsbad, Calif., USA) supplemented with 20% fetal bovine serum, while HaCaT cells (ACC-771: DSMZ, Braunschweig, GERMANY) were maintained in Eagle's culture medium according to Dulbecco (Gibco, Carlsbad, Calif., USA) containing 10% fetal bovine serum. Cells were treated with the naturally-occurring compounds A-H or with compounds 1-17 for times and concentrations indicated in the text.
Cells were seeded in 96-well plates with a density of 5×10^5 cells/ml (5×10^4 cells per well) and treated for the times and the concentrations of the various compounds, as indicated in the text.
All treatments were carried out in triplicate, including control treatments. All treatment reactions contained a final concentration of 1% DMSO (D5879; Sigma-Aldrich, St Louis, Mo., USA). To quantify vitality, cells were assayed by the MTS CellTiter 96® AQueous One Solution Cell Proliferation Assay (G3580; Promega, Madison, Wis., USA). Absorbance was detected at 490 nm using the GloMax Multidetection System instrument (Promega, Madison, Wis., USA). Data were collected in the form of absorbance units (ABSs) and standardized to obtain the proliferation rate (MTS) through the equation: % cell proliferation=(ABScell culture+compound−ABSculture medium+compound/(ABScell culture+DMSO−ABSculture medium+DMSO)×100.
The 50% inhibition concentration was calculated using the GraphPad Prism software program (GraphPad Software Inc., La Jolla, Calif., USA).

[1] = test system: Notch signaling (N1VAL, N3ICD) in DND41 cells; test: Western blot of N1VAL and N3ICD expression in DND41 cells; format: cell-based, human; conditions: for effect on the expression of N1VAL / concentration at which expression of N1VAL and N3ICD is decreased: DND41 cells, 36 hours, Western blot; for effect on the expression of N1VAL: 0-50 μM
Description: In order to identify new naturally-occurring molecular agents able to modulate Notch signaling, the effects on protein expression of the activated domain of Notch1 (N1VAL), and of the intracellular domain of Notch3 (N3ICD), were evaluated in DND41 cells through
Western blotting assays, following treatment for 36 hours with increasing concentrations (0, 1, 5, 10, 20, 50 μM) of the eight molecules (A-H) previously selected. Functional biochemical screening was performed on T-ALL DND41 cells because they are notoriously sensitive to the block of Notch signaling, and characterized by the constitutive and ligand-independent activation of the Notch1 pathway and by the high expression of Notch3. This makes this cell line a useful experimental model for screening putative Notch inhibitors.
In order to investigate the activity and selectivity of action of the 12 synthetic derivatives of butein, and following the screening scheme described in the first design phase, the efficacy of these molecules was analyzed by verifying the effects of 36 hours of treatment at increasing doses on the activation of Notch signaling and on the proliferation in DND41 cells.
Laemmli Sample Buffer (161-0737; Bio-Rad Laboratories Inc., Hercules, Calif., USA) was added to each cell pellet. Cells were lysed by ultrasonic sonication and to each mixture 5% 2-mercaptoethanol (161-0710; Bio-Rad Laboratories Inc., Hercules, Calif., USA) was added. Samples were denatured at 100° C. for 5 min and protein mixtures were separated by means of Sodium Dodecyl Sulphate-Polyacrylamide Gel Electrophoresis using 8% acrylamide and transferred onto nitrocellulose membranes. After transfer, the membranes pre-saturated in 5% Blot Dry Fat Milk (1706404; Bio-Rad Laboratories Inc., Hercules, Calif., USA) were incubated for 16 hours at +4° C. with the following primary antibodies diluted at 1:1000 in 5% Dry Fat Milk (1706404; Bio-Rad Laboratories Inc., Hercules, Calif., USA): Notch1Val1744 (2421; Cell Signaling Technology, Beverly, Mass., USA), Notch3 (2889; Cell Signaling Technology, Beverly, Mass., USA) and β-actin (sc-47778; Santa Cruz Biotechnology, Santa Cruz, Calif., USA). Subsequently, filters were incubated for 1 hour at room temperature with the following secondary antibodies: anti-rabbit (sc-2004, Santa Cruz Biotechnology, Santa Cruz, Calif., USA) or anti-mouse (sc-2005, Santa Cruz Biotechnology, Santa Cruz, Calif., USA). Chemiluminescence signal detection was performed using the ECL Advanced Detection System substrate (RPN2135; E Healthcare UK Limited, Buckinghamshire, UK).

[2] = Homo sapiens, 36-hour treatments in DND41 cells, mean of triplicate experiments ± S.D., Table 1, read-out: IG50 S.D.
[3] = Homo sapiens, 36-hour treatments in DND41 cells, mean of triplicate experiments ± S.D., Table 2, read-out: IG50 ± S.D.
[4] = Homo sapiens, DND41 cells, MTS assay, 36 hours of treatment, read-out: IG50 (growth inhibition)

Compound	IC50 (DND41 cells; [3])	further results
CC(C)(O)C1Cc2c(ccc3ccc(=O)oc23)O1 (stereo in doubt) [Compound E, (8R)-8-(2-hydroxypropane-2-yl)-8,9-dihydrofuran[2,3-h]chromen-2-one, reference compound]	–	effect on cell proliferation (DND41 cells; DND41 cells): do not significantly affect cell proliferation; IC50 (DND41 cells; [2]): > 50 µM; effect on the expression of N1VAL [1]: did not significantly modulate
COc1ccc(C(=O)/C=C/c2ccc(OC)c(OC)c2)c(OC)c1 [Compound 1, 2′,3,4,4′-tetramethoxychalcone]	15 ± 3.04 µM	–
COc1ccc(C(=O)/C=C/c2ccc(OC)c(OC)c2)c(O)c1 [Compound 2, 2′-hydroxy-3,4,4′-trimethoxychalcone]	31 ± 5.98 µM	–
COc1ccc(/C=C/C(=O)c2ccc(OC)cc2O)cc1 [Compound 3, 2′-hydroxy-4,4′-dimethoxychalcone]	47.5 ± 1.14 µM	–
COc1ccc(/C=C/C(=O)c2ccc(OC)cc2OC)cc1 [Compound 4, 2′,4,4′-trimethoxychalcone]	14.4 ± 2.56 µM	–
COc1ccc(C(=O)/C=C/c2ccc(OC)c(O)c2)c(O)c1 [Compound 5, 2′,3-dihydroxy-4,4′-dimethoxychalcone]	36.2 ± 10.6 µM	–
COc1ccc(C(=O)/C=C/c2ccc(OC)c(OC3CCCCO3)c2)c(O)c1 (centres unmarked) [Compound 5a, 2′-hydroxy-4,4′-dimethoxy-3-(tetrahydropyran-2-yloxy) chalcone]	> 50 µM	–
COc1ccc(/C=C/C(=O)c2ccc(OC3CCCCO3)cc2O)cc1OC (centres unmarked) [Compound 6a, 2′-hydroxy-3,4-dimethoxy-4′-(tetrahydropyran-2-yloxy)chalcone]	> 50 µM	–
COc1ccc(C(=O)/C=C/c2ccc(O)c(OC)c2)c(O)c1 [Compound 7, 2′,4-dihydroxy-3,4′-dimethoxychalcone]	33.1 ± 1.89 µM	–
COc1ccc(C(=O)/C=C/c2ccc(OC3CCCCO3)c(OC)c2)c(O)c1 (centres unmarked) [Compound 7a, 2′-hydroxy-3,4′-dimethoxy-4-(tetrahydropyran-2-yloxy)chalcone]	24.4 ± 1.76 µM	–
COc1ccc(C(=O)/C=C/c2ccc(OC3CCCCO3)cc2)c(O)c1 (centres unmarked) [Compound 8a, 2′-hydroxy-4′-methoxy-4-(tetrahydropyran-2-yloxy)chalcone]	48.5 ± 3.42 µM	–
COc1ccc(C(=O)CCc2ccc(O)cc2)c(O)c1 [Compound 8b, 2′,4-dihydroxy-4′-methoxydihydrochalcone]	–	IC50 (DND41 cells; 36-hour treatments in DND41 cells, mean of triplicate experiments ± S.D., Table 2, read-out: IG50 ± S.D.): > 50 µM
COc1ccc(C(=O)/C=C/c2ccccc2)c(O)c1 [Compound 9, 2′-hydroxy-4′-methoxychalcone]	11.1 ± 0.59 µM	–
COc1cccc(/C=C/C(=O)c2ccc(OC)cc2O)c1 [Compound 10, 2′-hydroxy-3,4′-dimethoxychalcone]	21.3 ± 1.72 µM	–
COc1ccc(C(=O)/C=C/c2cccc(O)c2)c(O)c1 [Compound 11, 2′,3-dihydroxy-4′-methoxychalcone]	13.6 ± 1.76 µM	–
COc1ccc(C(=O)/C=C/c2cccc(OC3CCCCO3)c2)c(O)c1 (centres unmarked) [Compound 11a, 2′-hydroxy-4′-methoxy-3-(tetrahydropyran-2-yloxy)chalcone]	17.4 ± 1.2 µM	–

Compound	IC50 (DND41 cells; [3])	further results
COc1ccc(C(=O)/C=C/c2ccccc2O)c(O)c1 [Compound 12, 2,2′-dihydroxy-4′-methoxychalcone]	14.2 ± 0.58 µM	–
COc1ccc(C(=O)/C=C/c2ccccc2OC)c(O)c1 [Compound 13, 2′-hydroxy-2,4′-dimethoxychalcone]	21.8 ± 1.78 µM	–
O=C(/C=C/c1ccc(O)cc1)c1ccccc1O [Compound 14, 2′,4-dihydroxychalcone]	16.5 ± 0.9 µM	–
O=C(/C=C/c1ccc(OC2CCCCO2)cc1)c1ccccc1O (centres unmarked) [Compound 14a, 2′-hydroxy-4-(tetrahydropyran-2-yloxy)chalcone]	48.6 ± 3.42 µM	–
COc1ccccc1C(=O)/C=C/c1ccc(O)cc1 [Compound 15, 4-hydroxy-2′-methoxychalcone]	16.8 ± 2.71 µM	–
COc1ccccc1C(=O)/C=C/c1ccc(OC2CCCCO2)cc1 (centres unmarked) [Compound 15a, 2′-methoxy-4-(tetrahydropyran-2-yloxy)chalcone]	31.5 ± 1.46 µM	–
COc1ccc(C(=O)/C=C/c2ccc(O)cc2)c(OC)c1 [Compound 16, 4-hydroxy-2′,4′-dimethoxychalcone]	13.8 ± 0.61 µM	IC50 (DND41 cells; [4]): > 13 µM; concentration at which expression of N1VAL and N3ICD is decreased [1]: 2.5 µM
COc1ccc(C(=O)/C=C/c2ccc(OC3CCCCO3)cc2)c(OC)c1 (centres unmarked) [Compound 16a, 2′,4′-dimethoxy-4-(tetrahydropyran-2-yloxy)chalcone]	32.6 ± 0.92 µM	–
COc1ccc(C(=O)/C=C/c2ccc(O)cc2)cc1 [Compound 17, 4-hydroxy-4′-methoxychalcone]	19.5 ± 0.56 µM	IC50 (DND41 cells; [4]): > 13 µM; concentration at which expression of N1VAL and N3ICD is decreased [1]: 2.5 µM
COc1ccc(C(=O)/C=C/c2ccc(OC3CCCCO3)cc2)cc1 (centres unmarked) [Compound 17a, 4′-methoxy-4-(tetrahydropyran-2-yloxy)chalcone]	28.8 ± 0.29 µM	–
O=C1c2c(O)cc(O)cc2O[C@H](c2ccc(O)c(O)c2)[C@H]1O [Compound A, (2R,3R)-2-(3,4-dihydroxyphenyl)-3,5,7-trihydroxy-2,3-dihydrochromen-4-one, reference compound]	–	effect on cell proliferation (DND41 cells; DND41 cells): do not significantly affect cell proliferation; IC50 (DND41 cells; [2]): > 50 µM
CC(C)=CCc1c(O)ccc(C(=O)/C=C/c2ccc(O)cc2)c1O [Compound B, (E)-1-[2,4-dihydroxy-3-(3-methylbut-2-enyl)phenyl]-3-(4-hydroxyphenyl) prop-2-en-1-one, reference compound]	–	IC50 (DND41 cells; [2]): 13.9 µM; IC50 (DND41 cells; [4]): 13.9 ± 2.7 µM; inhibitory activity of Notch ([1]; screening carried out by the present inventors): did not show any inhibitory activity
O=C(/C=C/c1ccc(O)c(O)c1)c1ccc(O)cc1O [Compound C, (E)-1-(2,4-dihydroxyphenyl)-3-(3,4-dihydroxyphenyl)prop-2-en-1-one, reference compound]	–	IC50 (DND41 cells; [2]): 7.79 µM; IC50 (DND41 cells; [4]): 7.79 ± 1.73 µM
COc1c2occc2cc2ccc(=O)oc12 [Compound D, 9-methoxyfuran[3,2-g]chromen-7-one, reference compound]	–	effect on cell proliferation (DND41 cells; DND41 cells): do not significantly affect cell proliferation; IC50 (DND41 cells; [2]): > 50 µM; effect on the expression of N1VAL [1]: did not significantly modulate
COc1ccc2oc3cccc(O)c3c(=O)c2c1 [Compound F, 1-hydroxy-7-methoxy-9H-xanthen-9-one, reference compound]	–	effect on cell proliferation (DND41 cells; DND41 cells): do not significantly affect cell proliferation; IC50 (DND41 cells; [2]): > 50 µM; effect on the expression of N1VAL [1]: did not significantly modulate
O=c1c(O)c(-c2ccccc2)oc2cc(O)cc(O)c12 [Compound H, 3,5,7-trihydroxy-2-phenylchromen-4-one, reference compound]	–	IC50 (DND41 cells; [2]): 22.6 µM; IC50 (DND41 cells; [4]): 22.6 ± 1.89 µM
